Data published in article PMC7183711, “Co-production of gallic acid and a novel cell-associated tannase by a pigment-producing yeast, Sporidiobolus ruineniae A45.2” (Microbial Cell Factories, 2020).

System: T1, purified tannase (PT); cell-associated tannase (CAT) of Sporidiobolus ruineniae A45.2
T1 construct: gene tannin acyl hydrolase; native enzyme released from cell wall with Triton X-100, Q-Sepharose purified
Assay: rhodanine assay of released gallic acid, A520; Michaelis-Menten fit
Assay type: biochemical, Rhodosporidiobolus ruineniae
Conditions: 100 mM sodium phosphate pH 6.5, 30 °C, 10 min; 0.25-12.5 mM methyl gallate; purified free enzyme

**Q.** COC(=O)c1cc(O)c(O)c(O)c1 [methyl gallate] was tested. Which Km did it give?
**A.** 2600 ± 400 µM
